Experimental data: patent US7709514B2, “Therapeutic molecules and methods-1” (Cortical Pty Ltd, priority 2002, dated 2010)
Like-named read-outs stand apart in the source and are kept apart here.

Legend:
[1] = test system: antigen-specific T cell activation; test: antigen-specific (mBSA) activation of splenic T lymphocytes, 3H-thymidine incorporation; type: cell-based, mice; conditions: Mus musculus, T-cell, read-out: EC50, inhibition of T cell activation
Protocol: C57BL6/J male mice, aged 7-10 weeks old, were immunised with 200 μg of methylated bovine serum albumin (mBSA) dissolved in 20 μL of saline, emulsified in 200 μL of Freund's complete adjuvant (FCA) by subcutaneous injection. Seven (7) days later mice received a booster immunisation with 100 μg mBSA in 10 μL saline plus 100 μL FCA by subcutaneous injection. After a further seven (7) days mice were killed and spleens collected aseptically into Hanks buffered saline solution (HBSS). A single cell suspension was prepared in Petri dishes by flushing DMEM using a 26G needle and 2 mL syringe. The resulting cell suspension was centrifuged for 5-7 minutes and supernatant discarded. Erythrocytes were lysed using a solution containing 0.579% NH4Cl, 0.000037% EDTA, and 0.1% NaHCO3 in a 37° C. water bath. Tubes were then filled with DMEM and centrifuged for 5-7 minutes. The cell-containing pellet was then resuspended in DMEM containing 5% fetal calf serum TICS) and 0.05% 2-mercapto-ethanol at a concentration of 1×10^6 cells/mL and plated at 1×10^5 cells/well in 96-well plastic tissue culture plates. Test substances (compound or vehicle) were added and incubated for 1 hour in a 37° C., 5% CO2 incubator. The specific stimulating antigen, mBSA, was then added at 10-50 μg/ml and plates incubated for 30 hours in a 37° C., 5% CO2 incubator. Tritiated ^3H-thymidine was then added at a concentration of 0.5 μCi/well for a further 18 hours. Cells were harvested on a Packard cell harvester, and the harvested material added to 750 μL/tube scintillation fluid. Scintillation counts were read on a Wallac beta-emission counter.
The concentration at which T cell activation was suppressed by 50% compared to vehicle-only-treated cells (EC50) was calculated using Prism® software. […] Further compounds were also tested for their ability to inhibit antigen-specific T cell activation as a marker of the inhibition of the cytokine or biological activity of MIF using this assay. Table 5 lists the EC50 for each compound in this assay, performed with concentrations of mBSA of either 50 or 10 μg/ml.

[2] = test system: IL-1-induced COX-2 expression; test: IL-1-induced COX-2 expression in S112 human dermal fibroblasts (MIF-dependent bioassay); type: cell-based; conditions: Homo sapiens, Fibroblast; for inhibition at 50 µM: read-out: % inhibition of IL-1-induced COX-2 expression; for inhibition at 25 µM: compound 25 μM
Protocol: The activity of compounds was studied in a bioassay utilising MIF-dependent activation of human dermal fibroblasts. […] IL-1-induced COX-2 expression is therefore a MIF-dependent event. […] Prior to experimentation, cells were seeded at 10^5 cells/ml in RPMI/0.1% BSA for 18 hours. […] After 6 hours, cells were collected and intracellular COX-2 protein determined by permeabilisation flow cytometry. […] Cellular fluorescence was determined using a flow cytometer. At least 5000 events were counted for each reading, each of which was performed in duplicate, and the results expressed in mean fluorescence intensity (MFI) after subtraction of negative control-labelled cell fluorescence. The effect of each compound was determined by subtracting the IL-1+compound-treated cell MFI from the IL-1-treated cell (control) MFI and expressed as % inhibition. In each case the % inhibition of IL-1-induced COX-2 expression is expressed as the mean, or mean±SEM where results are available from multiple experiments.

[3] = test system: murine peritoneal macrophage nitric oxide production; test: inhibition of peritoneal macrophage nitric oxide release (Greiss assay); type: cell-based, mice; conditions: Mus musculus, LPS 10 ng/ml and interferon-γ 10 units/ml, 24 hours, read-out: % Nitrite concentration inhibition from control
Protocol: C57BL6/J male mice were injected intraperitoneally with 2 ml of thioglycollate. Five (5) days later peritoneal macrophages were collected by lavaging the peritoneum of anaesthetized mice with 3 ml of cold Hanks buffered saline solution. Cells from several mice were pooled, washed and re-suspended in DMEM supplemented with 5% FCS. Cells were plated in 96 well plastic tissue culture plates at 1×10^5 cells/well. Cells were treated with compound or vehicle for 1 hour in a 5% CO2 incubator at 37° C. Cells were then treated with LPS (10 ng/ml) and recombinant human interferon-γ (10 units/ml) and incubated for 24 hours. After 24 hours, 50 μl of supernatant from each well was carefully removed and transferred to ELISA plates. The concentration of nitrite in culture supernatants was measured by the Greiss assay (27). The results were defined as the percentage inhibition of nitrite concentration in compound-treated cell culture supernatants compared to that of vehicle-treated cells.

[4] = compound 50 μM, S112 cells, IL-1 0.1 ng/ml, 6 hours
[5] = S112 cells, IL-1 0.1 ng/ml, 6 hours

| Structure (SMILES) | EC50 ([1]; mBSA 10 μg/ml) | EC50 ([1]; mBSA 50 μg/ml) | inhibition at 50 µM [2, 4] | also measured |
| --- | --- | --- | --- | --- |
| CCCCCNS(=O)(=O)c1ccc2[nH]c(=O)[nH]c2c1 [Compound 27, 2(3H)-benzimidazolone-5-sulfonic acid pentyl amide] | 9.15 µM | 1.29 µM | 37.4% | melting point: 316 to 318 °C |
| Cc1cc2[nH]c(=O)[nH]c2cc1N [Compound 23, 5-Amino-6-methylbenzimidazol-2-one] |  |  | 8.5% |  |
| Cc1cc2[nH]c(=O)[nH]c2cc1O [Compound 18, 5-Hydroxy-6-methybenzimidazol-2-one] | 19.3 µM | 34 µM | 2.4% |  |
| COC(=O)C(CO)NC(=O)c1ccc2[nH]c(=O)[nH]c2c1 (stereo not drawn) [Compound 9, methyl 3-hydroxy-2-{[(2-oxo-2,3-dihydro-1H-1,3-benzimidazol-5-yl)carbonyl]amino}propanoate] | 77 µM | 61.9 µM | 14.9% |  |
| CCCCCCC(=O)c1ccc2c(c1)CC(=O)O2 [Compound 33] | 24.8 µM | 14 µM |  | melting point: 64 to 67 °C |
| CCCCNC(=N)c1ccc2[nH]c(=O)[nH]c2c1 [Compound 32, N-butyl-2-oxo-2,3-dihydro-1H-1,3-benzimidazole-5-carboximidamide] | > 100 µM | > 100 µM | 13.8% | melting point: 168 °C |
| Cc1cc2[nH]c(=O)[nH]c2cc1NC(=O)CSc1ncccn1 [Compound 24] |  |  | 30.3% |  |
| CCCCCOS(=O)(=O)c1ccc2[nH]c(=O)[nH]c2c1 [Compound 28, 2(3H)-benzimidazolone-5-sulfonic acid pentyl ester] | 2.19 µM | 7.37 µM |  |  |
| O=C(O)CCCC(=O)c1ccc2[nH]c(=O)[nH]c2c1 [Compound 26, 5-(benzimidazol-2(3H)-one-6-yl)-5-oxopentanoic acid] | 10.2 µM | 2.31 µM | 9.8% |  |
| Cc1c(Br)c(Br)c2[nH]c(=O)[nH]c2c1Br [Compound 20, 4,5,7-Tribromo-6-methylbenzimidazol-2-one] |  |  |  | inhibition at 25 µM [2, 5]: 28.5% |
| COC(=O)C(Cc1ccccc1)NC(=O)c1ccc2[nH]c(=O)[nH]c2c1 (stereo not drawn) [Compound 11, methyl 2-{[(2-oxo-2,3-dihydro-1H-1,3-benzimidazol-5-yl)carbonyl]amino}-3-phenyl propanoate] | 44.4 µM | 50.7 µM | 17.5% | inhibition at 25 µM ([3]; compound 25 μM): 3.1%; inhibition at 50 µM ([3]; compound 50 μM): 28.1%; inhibition at 100 µM ([3]; compound 100 μM): 65.5% |
| Cc1ccc2[nH]c(=O)[nH]c2c1 [Compound 2, 5-Methylbenzimidazol-2-one] |  |  |  | EC50 [1]: 7.29 µM; inhibition at 50 µM ([2]; 6 h): 13%; melting point: 300 to 302 °C |

The next lines start with results.

| EC50 ([1]; mBSA 10 μg/ml) | EC50 ([1]; mBSA 50 μg/ml) | Structure (SMILES) | inhibition at 50 µM [2, 4] | also measured |
| --- | --- | --- | --- | --- |
| 25.4 µM | > 100 µM | CCOC(=O)c1ccc2[nH]c(=O)[nH]c2c1 [Compound 8] | 19.9% |  |
| > 100 µM | > 100 µM | CCCCCSC(=O)c1ccc2[nH]c(=O)[nH]c2c1 [Compound 25, Pentyl-benzimidazol-2-one-5-carbothioate] |  |  |
| 25.8 µM | > 100 µM | O=C(OCCOCCO)c1ccc2[nH]c(=O)[nH]c2c1 [Compound 6, 5[2(1-oxy-2-hydroxyethyl)ethyl]benzimidazol-2-one-5-carboxylate] | 17.8% | melting point: 227 to 228 °C |
| 33.9 µM | 44.8 µM | COC(=O)c1ccc2[nH]c(=O)[nH]c2c1 [Compound 7, benzimidazol-2-one-5-methanoate] | 16.7% |  |
| > 100 µM | > 100 µM | Cc1cc2[nH]c(=O)[nH]c2cc1[N+](=O)[O-] [Compound 22, 5-Methyl-6-nitrobenzimidazol-2-one] |  | inhibition at 25 µM [2, 5]: 30% |
| 23.8 µM | 26 µM | CC(=O)OCC1OC(OC(=O)c2ccc3[nH]c(=O)[nH]c3c2)C(OC(C)=O)C(OC(C)=O)C1OC(C)=O (stereo not drawn) [Compound 16, 3,4,5-tris(acetyloxy)-6-[(acetyloxy)methyl]tetrahydro-2H-pyran-2-yl-benzimidazole-2-one-5-carboxylate] |  |  |
| > 100 µM | 77.9 µM | O=C(NC(Cc1ccccc1)C(=O)O)c1ccc2[nH]c(=O)[nH]c2c1 (stereo not drawn) [Compound 12, 2-{[(2-oxo-2,3-dihydro-1H-1,3-benzimidazol-5-yl)carbonyl]amino}-3-phenyl propanoic acid] | 19.9% |  |
| 9.4 µM | 10.1 µM | CCCCCOC(=O)c1ccc2[nH]c(=S)[nH]c2c1 [Compound 15, Pentyl-benzimidazole-2-thioxo-5-carboxylate] | 33.1% |  |
| 2.91 µM | 10.7 µM | Cc1cc2[nH]c(=O)[nH]c2cc1Br [Compound 17, 5-Bromo-6-methybenzimidazol-2-one] | 22.4% |  |
| 13.5 µM | 49.9 µM | CCCCCc1ccc2[nH]c(=O)[nH]c2c1 [Compound 34, 5-Pentylbenzimidazol-2-one] |  | inhibition at 10 µM ([2]; compound 10 μM, S112 cells, IL-1 0.1 ng/ml, 6 hours): 14.9% |
| > 100 µM | 77.5 µM | O=C(NC(CO)C(=O)O)c1ccc2[nH]c(=O)[nH]c2c1 (stereo not drawn) [Compound 10, 3-hydroxy-2-{[(2-oxo-2,3-dihydro-1H-1,3-benzimidazol-5-yl)carbonyl]amino}propanoic acid] | 19.3% |  |
